Results on 23 compounds are retold here after US6720313B1, “Biocidal composition containing phosphite ions” (Mattersmiths Holdings Limited, priority 1998, dated 2004).

Values after ≈ are worked out from the molar mass of the structure shown. Like-named read-outs stand apart in the source and are kept apart here.

For data set [1] the following is noted: metal oxinates; cited from earlier work.
For data set [2] the following is noted: acids including phosphorous acid; cited from earlier work.
The procedure of data set [3]:
These are prepared by addition of stoicheiometric quantities of precursors of the compounds concerned to produce the salt desired.

Data set [4] in a line: precipitation of solubilised biocides on addition of a higher pH solution. It counts as physicochemical. To be noted: aqueous solutions, pH raised to greater than 5. An excerpt: We carried out several studies, some in aqueous systems and others on wood subsequent to the biocide formulation being applied, wherein we applied a further solution with higher pH to increase the pH to greater than 5.

A short description of data set [5]: solubility studies of oxine copper using the invention. It counts as physicochemical. An excerpt:
We have carried out many solubility studies using the technology of this invention. For example, we are able to produce solutions stable at ambient temperature of oxine copper at concentrations greater than 100 grams per 200 mls of final product. Because the specific gravity of such solutions is approximately […] this yields a solution of oxine copper of 50 per cent weight/volume or more. This concentration is commercially viable to use and eliminates many of the potentially toxic or flammable formulation aids used in prior art solubilisation of oxine copper.

For data set [6] the following is noted: cited from earlier work.
For data set [7] the following is noted: cited from earlier work. The source holds these as a separate data set.
The format of data set [8] is physicochemical. From the text:
We decreased the pH by addition of phosphorous acid.
We have achieved solubility of fenpropimorph of as much as 10% by weight. This high level of solubility remains when that active is also the presence of 10-20% of other biocides.

Data set [9] relates to natural fungal inoculum on mini discs of Pinus radiata. The data set is described as follows: mini disc trial of fungicidal efficacy. The class given is cell-based. To be noted: compared with untreated control. How it is done: For example, a mini disc trial, typically used to assess formulation efficacy, was used to establish relative efficacy of various formulations. Included in the trial were formulations using both phosphoric acid and phosphorous acid.
These examples were then diluted in water to produce stable solutions and then tested against a natural fungal inoculum on mini discs of Pinus radiata to determine fungicidal efficacy. The following table, Table 5, illustrates the relative performance of each biocide after 3 weeks in an incubator.
These formulations were then diluted and tested using the mini disc method. Also included was an industry standard based on the formulation of U.S. Pat. No. 4,950,685 coded in the trial as KC1 and listed in Table 7.
The formulations were then tested using a mini disc trial with results as disclosed in Table 9.

With Bismuth, in data set [1], the pH complete precipitation is recorded as 5.2-9.4 and the pH initial precipitation is listed as 3.7.
As to `[O-]c1cccc2cccnc12.[O-]c1cccc2cccnc12.[Zn+2]` [Zinc], in data set [1], the pH complete precipitation is listed as more than 4.4 and the pH initial precipitation was 3.3.
As for mancozeb, the stability to acids result in data set [2] is “decomposed by acids”.
Consider `[Ca]` [Calcium], for which, in data set [1], the pH complete precipitation is recorded as 9.2-12.7 and the pH initial precipitation is 6.8.
As for `[Co+2].[O-]c1cccc2cccnc12.[O-]c1cccc2cccnc12` [Cobalt], the pH for dissolution in data set [3] (transition metal phosphites) is listed as less than 4.5. In data set [1], the pH complete precipitation is on record as 4.9-11.6 and the pH initial precipitation is on record as 3.6.
On to `[Mn+2]` [Manganese], for which, in data set [3], the “Solubility at pH = 7” value is reported as “Insoluble”. Also, the pH for dissolution in [3] (transition metal phosphites) was less than 4.5. Also, in data set [1], the pH complete precipitation is 5.9-9.5 and the pH initial precipitation was 4.3.
As for “copper 8-hydroxyquinolinolate [oxine copper]”, the “effect of adding a solution of higher pH” value in data set [4] was “immediate precipitation”. Also, the solution concentration weight/volume in data set [5] (ambient temperature) is not below 50 per cent weight/volume. Moreover, in data set [5] (phosphorous acid solution), the “concentration of solutions stable at ambient temperature” value is “greater than 100 grams per 200 mls of final product”. The “Oral LD50 Rat” value in data set [6] (in vivo, po) is recorded as 10,000 mg/kg. Moreover, in data set [1], the pH complete precipitation result is on record as “greater than 3.3”.
In the case of `[Fe+3].[O-]c1cccc2cccnc12.[O-]c1cccc2cccnc12.[O-]c1cccc2cccnc12` [Iron], the pH for dissolution in data set [3] (transition metal phosphites) is less than 3.5. Besides, the “Solubility at pH = 7” value in data set [3] (transition metal phosphites, pH = 7) is “Insoluble”. Besides, in [1], the pH complete precipitation was 4.1-11.2 and the pH initial precipitation is given as 2.5.
For copper, the “Solubility at pH = 7” value in data set [3] is “Insoluble”. Moreover, the pH for dissolution in data set [3] (transition metal phosphites) is less than 3.5. Besides, in data set [1], the pH complete precipitation is listed as more than 3.3 and the pH initial precipitation is listed as 3.0.
Consider `[Mg]` [Magnesium], for which, in [1], the pH complete precipitation is given as more than 8.7 and the pH initial precipitation is listed as 7.0.
Turning to arsenic, in data set [6], the “LD50 Rat” value is 15 to 293 mg/kg.
As to `[Mo]` [Molybdenum], in data set [1], the pH complete precipitation is listed as 3.6-7.3 and the pH initial precipitation is on record as 2.0.
In the case of Tungsten, in [1], the pH complete precipitation is reported as 5.0-5.7 and the pH initial precipitation was 3.5.
With `[Cd]` [Cadmium], in [1], the pH complete precipitation was 5.5-13.2 and the pH initial precipitation is reported as 4.5.
Regarding `[O-]c1cccc2cccnc12.[O-]c1cccc2cccnc12.[Pb+2]` [Lead], in data set [1], the pH complete precipitation was 8.4-12.3 and the pH initial precipitation was 4.8.
With `COC(=O)Nc1nc2ccccc2[nH]1` [Carbendazim, methyl benzimidazoyl carbamate], in [4], the “effect of adding a solution of higher pH” value is recorded as “immediate precipitation”.
In the case of `CC(Cc1ccc(C(C)(C)C)cc1)CN1C[C@@H](C)O[C@@H](C)C1` (some centres unmarked) [fenpropimorph, dimethylethyl phenyl methylpropyl dimethylmorpholine], the Solubility was 7300 µg/mL (≈ 24100 µM) in [7] (pH 4.4), 4.3 µg/mL (≈ 14.2 µM) in data set [7] (pH 7) and 3.5 µg/mL (≈ 11.5 µM) in [7] (pH 9). In [8], this compound showed a solubility achieved not above 10 % by weight.
In data set [3], `[Ni+2].[O-]c1cccc2cccnc12.[O-]c1cccc2cccnc12` [Nickel] showed a pH for dissolution of less than 4.5. Besides, in data set [1], the pH complete precipitation was 4.6-10.0 and the pH initial precipitation is listed as 3.5.
Consider maneb, for which the stability to acids result in data set [2] was “decomposed by acids”.
Take `OP(O)O` [phosphorous acid]: the “fungicidal activity of phosphorous acid alone” value in [9] was “marginal improvement over the untreated control”.
On to Titanium, for which, in [1], the pH complete precipitation is 4.8-8.6 and the pH initial precipitation is 3.6.
Regarding phosethyl-Al, the stability to acids entry in data set [2] is given as “decomposed by acids”.
Regarding `[Al+3].[O-]c1cccc2cccnc12.[O-]c1cccc2cccnc12.[O-]c1cccc2cccnc12` [Aluminium], in [1], the pH complete precipitation was 4.7-9.8 and the pH initial precipitation is reported as 2.9.
